Data published in patent publication US20070191450A1, “Use of Benzo-Heteroaryl Sulfamide Derivatives for the Treatment of Mania and Bipolar Disorder” (priority 2006, published 2007).

Legend:
[1] = test system: hippocampal kindled seizures; assay: Rat Hippocampal Kindling Model (Interruption of Kindled State); type: in vivo; details: for ED50: Rattus norvegicus, ip, read-out: ED50 = median therapeutic dose; for After-Discharge Duration (% of control) / Mean Seizure Score: i.p., line of the ED50 dose; for effect on seizure activity: reference drugs
Method: In the present rapid hippocampal kindling model adult male Sprague-Dawley rats (300-400 g) were surgically implanted with bipolar electrodes placed in the hippocampus. […] One week later, the rats received 2-3 supra-threshold stimulations delivered every 30 min before compound treatment to ensure stability of the behavioral seizure stage and after-discharge duration. Fifteen minutes after the last stimulation, a single dose of vehicle or test compound was administered i.p (intraperitoneally). After 15 min, each rat was then stimulated every 30 min for 3 to 4 h. After each stimulation, individual seizure scores and after-discharge durations were recorded. The group mean±SEM were calculated for each parameter. Eight rats per dose and a minimum of four doses were used to establish an ED50 value. Efficacy was measured as the ability of a compound to modify the seizure score (severity of spread) and after-discharge duration (ADD; excitability) of the generalized seizures.
Thus, according to the theories presented in current literature (Ghaemi, S. N., Boiman, E. E., and Goodwin, F. K., Soc. of Bio. Psychiatry, (1999), vol. 45, pp 137-144; Stoll, A. L., and Severus, W. E., Harvard Rev. Psychiatry, July/August (1996), Vol. 4, No. 2, pp 77-89) a decrease in seizure score and/or ADD may also be predictive of the ability of a test compound to treat the cycling associated with bipolar disorder.

[2] = Median toxic dose (TD50), i.p., listed with the Rat Hippocampal Kindling Test; details: Sprague-Dawley, in vivo, ip, Table 4 dose column
[3] = test system: hippocampal kindled seizures; details: background statement; cited from earlier work
[4] = test system: amygdala kindled seizures; details: i.p., cited from earlier work
[5] = test system: LTG-resistant amygdala kindled seizures; details: 5 mg/kg, i.p., q.d.; cited from earlier work
[6] = test system: dominant rats; assay: Dominant-Submissive assay: Reduction of Dominant Behavior Model (RDBM); type: in vivo, rat; details: for treatment time after which dominant behavior was significantly reduced: historical data, FIG. 2, i.p.: lithium 100 mg/kg, carbamazepine 20 mg/kg, VPA 30 mg/kg
Method: Dominance and submissiveness, defined in a competition test and measured as the relative success of two food-restricted rats to gain access to a feeder, form a behavioral paradigm—the Dominant Submissive Relationship (DSR). This paradigm results in two models which are predictive of ability of test compounds (drugs) to treat mood disorders.
Test compounds are evaluated for either their ability to inhibit the dominant behavior of rats taking food at the expense of an opponent (reduction of dominant behavior model or RDBM) and thus their potential as treatments for mania; or for their ability to increase the competitive behavior of submissive rats losing such encounters (reduction of submissive behavior model or RSBM) and thus their potential as treatments for depression; (Malatynska, E., and Knapp, R. J., Neuroscience and Biobehavioral Review, 29 (2005) 715-737).
The Reduction of Dominant Behavior Model (RDBM) test, wherein the dominant animals are treated with test compound, is predictive of the ability of the test compound to treat mani. This model was applied to Compound #1 of the present invention, according to the following procedure.
(§1) Male Sprague Dawley rats (140 to 160 g) from Charles River Laboratories Wilmington, Mass. were used in this assay. Shipments of rats were received at two-week intervals. Each shipment went through five-day quarantine, one-week acclimation period, and one-week selection process, followed by five-weeks of drug or vehicle treatment to those pairs selected.
(§2) Rats were housed four per cage. Access to food was restricted to one hour per day after testing on Monday through Thursday. After testing on Friday, rats had free access to food until being fasted again on Sunday. At no time were the rats deprived of water. The food deprivation periods used had little effect on weight gain as the average weight of rats was about 300 g at the end of the study. At the conclusion of experiment rats were sacrificed by decapitation, the trunk blood and brains were collected for in vitro experiments and drug concentration measurements.
(§3) The basic testing apparatus consisted of two chambers connected with a tunnel only large enough to allow one rat to pass through at a time. On the floor, at the mid-point of the tunnel was a container of sweetened milk. […] During the five-minute daily sessions, time spent in the feeder zone by each rat was recorded by the video tracking software and saved into a text file.
(§4) The test began with a random assignment of rats into pairs. […] The time spent in the feeder zone by each animal was recorded. […] Finally, there must have been no “reversals” during the pair selection week where the putative submissive rat out-scored its dominant partner on isolated occasions. […]

[7] = test system: amygdala kindled seizures; assay: Amygdala Kindling Assay (Kindling Prevention); type: in vivo, rat
[8] = test system: submissive rats; assay: Dominant-Submissive assay: Reduction of Submissive Behavior Model (RSBM); type: in vivo, rat
Method: The Reduction of Submissive Behavior Model (RSBM) test, wherein the submissive animals are treated with test compound, is predictive of the ability of the test compound to treat depression. This model was applied to Compound #1 of the present invention, according to the following procedure.
as §1, §2, §3, §4
Significant differences between time spent on the feeder by dominant and submissive rats were determined by ANOVA using GraphPad Prism software (GraphPad Software, Inc. San Diego, Calif.) followed by a two-tailed t-test (P<0.05). […]

[9] = test system: LTG-resistant amygdala kindled seizures; assay: Lamotrigine Resistant Amygdala Kindled Rat Model (Interruption of Kindled State); type: in vivo; details: 100 mg/kg, i.p.
Method: Amygdala kindling is less severe than hippocampal kindling, such that many AEDs are effective against amygdala kindled seizures, but are ineffective against hippocampal kindled seizures.
In the LTG-resistant amygdala kindling model, rats were dosed with LTG (5 mg/kg, i.p., q.d.) during the acquisition phase of kindling. […] Once kindled (supra-threshold stimulation of 150 μA biphasic 60 Hz current pulse for 1 second; ˜2 weeks), rats were re-challenged with a high dose of LTG (45 mg/kg, i.p.) one week later to insure resistance. After a 3-4 day wash out period, rats received 2-3 supra-threshold stimulations delivered every 30 min before compound treatment to ensure stability of the behavioral seizure stage and after-discharge duration. Fifteen minutes after the last stimulation, a single dose of vehicle or test compound was administered i.p. After 15 min, each rat was then stimulated every 30 min for 3 to 4 h. After each stimulation, individual seizure scores and after-discharge durations were recorded. The group mean±SEM was calculated for each parameter.

Row | SMILES | ED50 [1] [mg/kg] | After-Discharge Duration (% of control) [1] | Mean Seizure Score [1] | effect on seizure activity [1] | TD50 [2] [mg/kg] | other results
1 | O=C1NC(=O)C(c2ccccc2)(c2ccccc2)N1 [Phenytoin] | 150 | 209 ± 43% of control | 4.3 ± 0.3 | suppressed seizure activity, but at doses associated with toxicity | 15 | –
2 | Nc1nnc(-c2cccc(Cl)c2Cl)c(N)n1 [LTG, lamotrigine] | – | – | – | – | – | protection against hippocampal kindled seizures [3]: unable to protect against hippocampal kindled seizures; ED50, amygdala kindled seizures ([4]; Cl=4-50 mg/kg): 25 mg/kg; ADD reduced by [4]: 62%; amygdala kindled seizure score [4]: ~2; effect on kindling during acquisition phase [5]: no effect on kindling itself
3 | NC(=O)N1c2ccccc2C=Cc2ccccc21 [Carbamazepine, carbamazepine] | 50 | 72 ± 13% of control | 2.3 ± 0.6 | suppressed seizure activity, but at doses associated with toxicity | 26 | treatment time after which dominant behavior was significantly reduced [6]: 3 weeks
4 | NS(=O)(=O)NCc1csc2ccccc12 [Compound #1, N-(benzo[b]thien-3-ylmethyl)-sulfamide] | – | – | – | – | 100 | seizure score at the conclusion of the drug- and stimulus-free period versus vehicle ([7]; 100 mg/kg i.p. during acquisition, re-challenged in the absence of drug): remained significantly lower; acquisition of the fully generalized kindled seizure ([7]; 100 mg/kg i.p., FIG. 4): prevented the acquisition of the fully generalized kindled seizure; treatment time after which reduction of submissive behavior was statistically significant ([8]; 30 mg/kg p.o. twice a day, p<0.05): 5 weeks; treatment time after which reduction of submissive behavior was statistically significant ([8]; 60 mg/kg p.o. twice a day, p<0.01): 17 days; reduction of submissive behavior (antidepressant) ([8]; p.o. twice a day for 5 weeks, 6, 30, 60 mg/kg): reduced submissive behavior (antidepressant) in a dose-dependent manner; treatment time after which reduction of dominant behavior was statistically significant ([6]; 1.25 mg/kg p.o. BID, p<0.05): 2 weeks; reduction of dominant behavior (dominance level) ([6]; p.o. BID 1.25, 6, 30, 60 mg/kg, FIG. 1): reduced dominant behavior in a dose-dependent manner; rats protected ([9]; n=11): Five out of eleven; seizure score after treatment ([9]; reduced from a 5): 3.1
5 | CCC1(C)CC(=O)NC1=O (centres unmarked) [Ethosuximide] | 250 | 78 ± 13% of control | 5 ± 0 | ineffective | 189 | –
6 | CCCC(CCC)C(=O)O [Valproic acid] | 350 | 3 ± 1.4% of control | 0.3 ± 0.3 | suppressed seizure activity, but at doses associated with toxicity | 316 | dose giving protection similar to Compound #1 (toxic doses) ([1]; rat, in vivo): > 300 mg/kg
7 | CCCC(CCC)C(=O)[O-].[Na+] [VPA, sodium valproate] | – | – | – | – | – | treatment time after which dominant behavior was significantly reduced [6]: 1 weeks
